Measurements taken from patent publication US20170210751A1, “PRMT5 INHIBITORS AND USES THEREOF” (Epizyme, Inc., priority 2014, published 2017).

system: Symmetric di-Methyl Arginine in Z-138 cells; experiment: Z-138 Methylation Assay (In Cell Western for symmetric di-methyl arginine); assay type: cell-based; conditions: Homo sapiens, 96 hours incubation, symmetric di-methyl arginine normalised to DNA content, read-out: ICW EC50
How it was run: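 Z-138 cells were treated with compound for 96 h at 37 °C, then fixed on poly-D-lysine plates. Symmetric di-methyl arginine was detected by In-Cell Western (800 nm) with DRAQ5 DNA normalisation (700 nm). Percent inhibition used DMSO and 3 μM reference-compound controls; IC50 curves came from triplicate wells.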

Q: Which EC50 does the source give for `Cn1ncc2c1CCCN2C[C@@H](O)CNC(=O)c1cc(NC2COC2)ncn1` [Compound 3-40] here?
A: > 1000 nM

Q: For `Cc1nc2c([nH]1)CCN(C[C@@H](O)CNC(=O)c1cc(NC3COC3)ncn1)C2` [Compound 3-41], which EC50 is on record?
A: > 1000 nM

Q: `CC(=O)N1CC(Nc2cc(C(=O)NC[C@H](O)CN3CCc4cn[nH]c4C3)ncn2)C1` [Compound 3-44] was tested. Which EC50 did it give?
A: > 1000 nM

Q: For `CC(=O)N1CC(Nc2cc(C(=O)NC[C@H](O)CN3CCc4c(ncn4C)C3)ncn2)C1` [Compound 3-45], which EC50 is on record?
A: > 1000 nM

Q: With `CC(=O)N1CC(Nc2cc(C(=O)NC[C@H](O)CN3CCCc4c3cnn4C)ncn2)C1` [Compound 3-46] as the compound, how does the EC50 read?
A: > 1000 nM

Q: Which EC50 does the source give for `CC(=O)N1CC(Nc2cc(C(=O)NC[C@H](O)CN3CCc4[nH]c(C)nc4C3)ncn2)C1` [Compound 3-47] here?
A: > 1000 nM

Q: Which EC50 does the source give for `CC(=O)N1CCC(Nc2cc(C(=O)NC[C@H](O)CN3CCc4cn[nH]c4C3)ccn2)CC1` [Compound 3-50] here?
A: > 1000 nM

Q: With `CC(=O)N1CCC(Nc2cc(C(=O)NC[C@H](O)CN3CCc4cn[nH]c4C3)ncn2)CC1` [Compound 3-51] as the compound, how does the EC50 read?
A: > 1000 nM

Q: `CC(=O)N1CCC(Nc2cc(C(=O)NC[C@H](O)CN3CCc4c(cnn4C)C3)ccn2)CC1` [Compound 3-52] was tested. Which EC50 did it give?
A: > 1000 nM

Q: How did the EC50 turn out when `CC(=O)N1CCC(Nc2cc(C(=O)NC[C@H](O)CN3CCc4nn(C)cc4C3)ccn2)CC1` [Compound 3-53] was run?
A: > 1000 nM

Q: Which EC50 does the source give for `CC(=O)N1CCC(Nc2cc(C(=O)NC[C@H](O)CN3CCc4nc(C)[nH]c4C3)ccn2)CC1` [Compound 3-54] here?
A: > 1000 nM

Q: `CC(=O)N1CCC(Nc2cc(C(=O)NC[C@H](O)CN3CCc4c(cnn4C)C3)ncn2)CC1` [Compound 3-56] was tested. Which EC50 did it give?
A: > 1000 nM

Q: `CC(=O)N1CCC(Nc2cc(C(=O)NC[C@H](O)CN3CCc4nn(C)cc4C3)ncn2)CC1` [Compound 3-57] was tested. Which EC50 did it give?
A: > 1000 nM

Q: Which EC50 does the source give for `CC(=O)N1CCC(Nc2cc(C(=O)NC[C@H](O)CN3CCCc4c3cnn4C)ncn2)CC1` [Compound 3-58] here?
A: > 1000 nM

Q: For `Cc1nc2c(o1)CCN(C[C@@H](O)CNC(=O)c1cc(NC3COC3)ncn1)C2` [Compound 4-1, (S)—N-(2-hydroxy-3-(2-methyl-6,7-dihydrooxazolo[4,5-c]pyridin-5(4H)-yl)propyl)-6-(oxetan-3-ylamino)pyrimidine-4-carboxamide], which EC50 is on record?
A: > 1000 nM

Q: `CC(=O)N1CC(Nc2cc(C(=O)NC[C@H](O)CN3CCc4oc(C)nc4C3)ncn2)C1` [Compound 4-2, (S)-6-((1-acetylazetidin-3-yl)amino)-N-(2-hydroxy-3-(2-methyl-6,7-dihydrooxazolo[4,5-c]pyridin-5(4H)-yl)propyl)pyrimidine-4-carboxamide] was tested. Which EC50 did it give?
A: > 1000 nM

Q: With `CC(=O)N1CCC(Nc2cc(C(=O)NC[C@H](O)CN3CCc4oc(C)nc4C3)ncn2)CC1` [Compound 4-3, (S)-6-((1-acetylpiperidin-4-yl)amino)-N-(2-hydroxy-3-(2-methyl-6,7-dihydrooxazolo[4,5-c]pyridin-5(4H)-yl)propyl)pyrimidine-4-carboxamide] as the compound, how does the EC50 read?
A: > 1000 nM

Q: How did the EC50 turn out when `CC(=O)N1CCC(Nc2cc(C(=O)NC[C@H](O)CN3CCc4oc(C)nc4C3)ccn2)CC1` [Compound 4-4, (S)-2-((1-acetylpiperidin-4-yl)amino)-N-(2-hydroxy-3-(2-methyl-6,7-dihydrooxazolo[4,5-c]pyridin-5(4H)-yl)propyl)isonicotinamide] was run?
A: > 1000 nM
